Measurements from paper PMC12444472, “BCI inhibits MKP3 by targeting the kinase-binding domain and disrupting ERK2 interaction” (The Journal of Biological Chemistry, 2025).
Changes are numbered by the printed parent chain.

What was measured:
[1] = system: MKP3; settings: cited from earlier work
[2] = molecular target: T1, MKP3 R83G (Homo sapiens, UniProt Q16828, R83G); assay: Phosphatase activity of MKP3 mutant toward pNPP with ERK2; type: biochemical; settings: 1 µM enzyme, 1 µM ERK2, 8 mM pNPP, 2.5 μM BCI
T1 construct: MKP3(1–381) (MKP3^FL); made in house; host or cells: Escherichia coli BL21(DE3)
T1 sequence (Q16828 1-381 R83G): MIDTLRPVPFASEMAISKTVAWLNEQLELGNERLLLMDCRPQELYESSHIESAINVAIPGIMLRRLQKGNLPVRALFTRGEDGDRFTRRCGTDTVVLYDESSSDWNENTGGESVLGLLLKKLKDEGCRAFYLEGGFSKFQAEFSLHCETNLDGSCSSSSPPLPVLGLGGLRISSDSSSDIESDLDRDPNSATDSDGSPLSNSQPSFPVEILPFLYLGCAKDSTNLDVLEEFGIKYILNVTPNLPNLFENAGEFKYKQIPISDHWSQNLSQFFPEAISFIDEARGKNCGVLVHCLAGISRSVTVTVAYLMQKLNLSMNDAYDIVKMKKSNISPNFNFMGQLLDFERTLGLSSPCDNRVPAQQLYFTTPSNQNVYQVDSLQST
Description: (§1) The phosphatase activity of MKP3 toward pNPP was measured using continuous spectrophotometric assays, either in the absence or the presence of ERK2 at a 1:1 M ratio with MKP3. Experiments were conducted at 25 °C in a reaction mixture with a total volume of 1.8 ml, containing 50 mM Mops (pH 7.0), 100 mM NaCl, and 0.1 mM EDTA. MKP3 (1 μM) was preincubated with varying concentrations of the inhibitor BCI for 5 min before initiating the reaction by adding pNPP at concentrations ranging from 0 to 14 mM. Continuous absorbance changes were recorded using a PerkinElmer LAMBDA 45 spectrophotometer equipped with a magnetic stirrer in the cuvette holder. The production of p-nitrophenol was monitored at 410 nm using an extinction coefficient of 18,000 M^-1 cm^-1.
(§2) Figure S2. Inhibition of full-length MKP3 mutant activity by BCI. The phosphatase activities (v0) of full-length MKP3 and its mutants (E81G, R83G, R85G, R87G, and R89A) at 1 µM concentration were measured using continuous spectrophotometric assays with 8 mM pNPP as the substrate, in the presence of ERK2 (1 µM), either without or with 2.5 μM BCI. Data are presented as mean ± SD (n = 3). Reactions were performed at 25 °C in a total volume of 1.8 mL, in a buffer containing 50 mM MOPS (pH 7.0), 100 mM NaCl, and 0.1 mM EDTA.

[3] = molecular target: T2, MKP3 T87G (Homo sapiens, UniProt Q16828, T87G); assay: as above; type: biochemical; settings: 1 µM enzyme, 1 µM ERK2, 8 mM pNPP, 2.5 μM BCI
T2 construct: MKP3(1–381) (MKP3^FL); made in house; host or cells: Escherichia coli BL21(DE3)
T2 sequence (Q16828 1-381 T87G): T1 sequence (Q16828 1-381 R83G) with G83R, T87G
Description: as §1, §2

[4] = molecular target: T3, MKP3 E81G (Homo sapiens, UniProt Q16828, E81G); assay: as above; type: biochemical; settings: 1 µM enzyme, 1 µM ERK2, 8 mM pNPP, 2.5 μM BCI
T3 construct: MKP3(1–381) (MKP3^FL); made in house; host or cells: Escherichia coli BL21(DE3)
T3 sequence (Q16828 1-381 E81G): T1 sequence (Q16828 1-381 R83G) with E81G, G83R
Description: as §1, §2

SMILES: O=C1/C(=C/c2ccccc2)C(NC2CCCCC2)c2ccccc21 (centres unmarked) [BCI, (E)-2-benzylidene-3-(cyclohexylamino)-2,3-dihydro-1H-inden-1-one]
- effect on ERK2-mediated MKP3 activity ([1]; ERK2-stimulated, OMFP substrate): inhibits
- effect on MKP3's basal activity toward OMFP ([1]; basal, without ERK2): does not affect
- enzymatic activity upon BCI addition compared with MKP3^WT [2]: higher enzymatic activity than WT MKP3
- enzymatic activity upon BCI addition compared with MKP3^WT [3]: BCI inhibition comparable to MKP3^WT
- enzymatic activity upon BCI addition compared with MKP3^WT [4]: higher enzymatic activity than WT MKP3
